The source of these data is patent publication US4450269A, “Mono-5-substituted-3-chloro-4H-1,2,6-thiadiazin-4-one antifungal agents” (FMC Corporation, priority 1980, dated 1984).

The subject of assay [1] is Pyricularia oryzae. It counts as cell-based. The following applies: PO, 48 hours.
Assay [2] has as its system Cladosporium cucumerinum. Put plainly: Mycelial growth test. It counts as cell-based. The following applies: Cladosporium cucumerinum, CC, read-out: Percent Fungus Growth Inhibition; for inhibition at 5 ppm / inhibition at 10 ppm / inhibition at 40 ppm: 72 h; for inhibition at 20 ppm: CC20, 72 h. The source says:
|CC = Cladosporium cucumerinum

Read-outs that look alike come from different tables or passages of the source.

As to `CC(=O)c1ccc(Oc2nsnc(Cl)c2=O)cc1` [Compound 47, 3-(4-acetylphenoxy)-5-chloro-4H--1,2,6-thiadiazin-4-one], in assay [1] (1.0 ppm), the “Spore Germination Rating” value was 1 (10-40). Besides, the “Spore Germination Rating” value in assay [1] (2.5 ppm) is 0 (0-10). In addition, in assay [1] (10 ppm), the “Spore Germination Rating” value is listed as 0 (0-10). In addition, the “Spore Germination Rating” value in assay [1] (40 ppm) is recorded as 0 (0-10). For the same compound, in assay [2], the inhibition at 5 ppm was 27%, the inhibition at 10 ppm came to 38%, the inhibition at 40 ppm stood at 77% and the inhibition at 20 ppm came out at 46%.
With `CC(=O)c1cccc(Oc2nsnc(Cl)c2=O)c1` [Compound 48, 3-(3-acetylphenoxy)-5-chloro-4H--1,2,6-thiadiazin-4-one], in assay [1] (1.0 ppm), the “Spore Germination Rating” value is 3 (60-80). Moreover, the “Spore Germination Rating” value in assay [1] (2.5 ppm) is recorded as 1 (10-40). In assay [1] (10 ppm), the “Spore Germination Rating” value is listed as 0 (0-10). Further, the “Spore Germination Rating” value in assay [1] (40 ppm) was 0 (0-10). Moreover, in assay [2], the inhibition at 5 ppm was determined as 29%, the inhibition at 10 ppm amounted to 33%, the inhibition at 40 ppm came to 100% and the inhibition at 20 ppm is 50%.
As to `CC(=O)c1ccccc1Oc1nsnc(Cl)c1=O` [Compound 49, 3-(2-acetylphenoxy)-5-chloro-4H--1,2,6-thiadiazin-4-one], in assay [1] (1.0 ppm), the “Spore Germination Rating” value is listed as 2 (40-60). In addition, in assay [1] (2.5 ppm), the “Spore Germination Rating” value is recorded as 1 (10-40). Also, in assay [1] (10 ppm), the “Spore Germination Rating” value is 0 (0-10). The “Spore Germination Rating” value in assay [1] (40 ppm) is 0 (0-10). In assay [2], the inhibition at 5 ppm was determined as 3%, the inhibition at 10 ppm came to 17%, the inhibition at 40 ppm was determined as 64% and the inhibition at 20 ppm was determined as 33%.
Regarding `O=C(O)c1ccc(Oc2nsnc(Cl)c2=O)cc1` [Compound 50, 3-(4-carboxyphenoxy)-5-chloro-4H--1,2,6-thiadiazin-4-one], the “Spore Germination Rating” value was 4 (80-100) in assay [1] (1.0 ppm), 4 (80-100) in assay [1] (2.5 ppm), 4 (80-100) in assay [1] (10 ppm) and 0 (0-10) in assay [1] (40 ppm). Further, the inhibition at 5 ppm in assay [2] stood at 58%. Further, the inhibition at 10 ppm in assay [2] amounted to 54%. Besides, in assay [2], the inhibition at 40 ppm is 100%. Moreover, the inhibition at 20 ppm in assay [2] amounted to 73%.
On to `COc1ccc(Cl)c(Oc2nsnc(Cl)c2=O)c1` [Compound 51, 3-chloro-5-[(2-chloro-5-methoxy)phenoxy]-4H--1,2,6-thiadiazin-4-one], for which the “Spore Germination Rating” value in assay [1] (1.0 ppm) is listed as 3 (60-80). Besides, the “Spore Germination Rating” value in assay [1] (2.5 ppm) was 0 (0-10). For the same compound, the “Spore Germination Rating” value in assay [1] (10 ppm) is listed as 0 (0-10). In assay [1] (40 ppm), the “Spore Germination Rating” value is 0 (0-10). In assay [2], the inhibition at 5 ppm is 8%, the inhibition at 10 ppm was 26%, the inhibition at 40 ppm worked out at 100% and the inhibition at 20 ppm turned out to be 85%.
Regarding `O=c1c(Cl)nsnc1Oc1ccc([N+](=O)[O-])cc1Cl` [Compound 53, 3-chloro-5-(2-chloro-4-nitrophenoxy)-4H--1,2,6-thiadiazin-4-one], the “Spore Germination Rating” value in assay [1] (1.0 ppm) is on record as 2 (40-60); in assay [1] (2.5 ppm), 0 (0-10); in assay [1] (10 ppm), 0 (0-10); in assay [1] (40 ppm), 0 (0-10). Besides, the inhibition at 5 ppm in assay [2] was found to be 45%. Also, the inhibition at 10 ppm in assay [2] was found to be 61%. In addition, the inhibition at 40 ppm in assay [2] stood at 65%. Further, the inhibition at 20 ppm in assay [2] was found to be 71%.
For `Cc1cc(Oc2nsnc(Cl)c2=O)ccc1Cl` [Compound 54, 3-chloro-5-(4-chloro-3-methylphenoxy)-4H--1,2,6-thiadiazin-4-one], the “Spore Germination Rating” value in assay [1] (1.0 ppm), in assay [1] (2.5 ppm), in assay [1] (10 ppm) and in assay [1] (40 ppm) was 0 (0-10) each time. Also, in assay [2], the inhibition at 5 ppm was determined as 14%. Further, the inhibition at 10 ppm in assay [2] stood at 28%. Moreover, the inhibition at 40 ppm in assay [2] worked out at 50%. Moreover, the inhibition at 20 ppm in assay [2] amounted to 33%.
Turning to `Cc1cc(Cl)ccc1Oc1nsnc(Cl)c1=O` [Compound 55, 3-chloro-5-(4-chloro-2-methylphenoxy)-4H--1,2,6-thiadiazin-4-one], the “Spore Germination Rating” value in assay [1] (1.0 ppm) is listed as 1 (10-40); in assay [1] (2.5 ppm), 0 (0-10); in assay [1] (10 ppm), 0 (0-10); in assay [1] (40 ppm), 0 (0-10). Further, the inhibition at 5 ppm in assay [2] worked out at 0%. For the same compound, the inhibition at 10 ppm in assay [2] stood at 11%. In addition, the inhibition at 40 ppm in assay [2] was 28%. Also, the inhibition at 20 ppm in assay [2] is 22%.
On to `Cc1ccc(Cl)c(Oc2nsnc(Cl)c2=O)c1` [Compound 56, 3-chloro-5-[(2-chloro-5-methyl)phenoxy]-4H--1,2,6-thiadiazin-4-one], for which the “Spore Germination Rating” value in assay [1] (1.0 ppm) is 0 (0-10). The “Spore Germination Rating” value in assay [1] (2.5 ppm) was 0 (0-10). The “Spore Germination Rating” value in assay [1] (10 ppm) is reported as 0 (0-10). The “Spore Germination Rating” value in assay [1] (40 ppm) is on record as 0 (0-10). Moreover, in assay [2], the inhibition at 5 ppm is 26%, the inhibition at 10 ppm is 38%, the inhibition at 40 ppm is 100% and the inhibition at 20 ppm came to 100%.
With `Cc1ccc(Oc2nsnc(Cl)c2=O)c(Br)c1` [Compound 57, 3-[(2-bromo-4-methyl)-phenoxy]-5-chloro-4H--1,2,6-thiadiazin-4-one], the “Spore Germination Rating” value in assay [1] (1.0 ppm) is 0 (0-10). Moreover, in assay [1] (2.5 ppm), the “Spore Germination Rating” value is 2 (40-60). In addition, the “Spore Germination Rating” value in assay [1] (10 ppm) is 0 (0-10). Moreover, the “Spore Germination Rating” value in assay [1] (40 ppm) is 0 (0-10). Besides, in assay [2], the inhibition at 5 ppm worked out at 42%, the inhibition at 10 ppm worked out at 56%, the inhibition at 40 ppm amounted to 78% and the inhibition at 20 ppm came out at 78%.
For `Cc1cc(Cl)c(Oc2nsnc(Cl)c2=O)cc1C` [Compound 58, 3-chloro-5-[(2-chloro-4,5-dimethyl)phenoxy]-4H--1,2,6-thiadiazin-4-one], the “Spore Germination Rating” value in assay [1] (1.0 ppm) was 4 (80-100); in assay [1] (2.5 ppm), 0 (0-10); in assay [1] (10 ppm), 0 (0-10); in assay [1] (40 ppm) it was 0 (0-10). For the same compound, the inhibition at 5 ppm in assay [2] came out at 44%. In addition, in assay [2], the inhibition at 10 ppm is 44%. The inhibition at 40 ppm in assay [2] was 61%. Besides, in assay [2], the inhibition at 20 ppm turned out to be 42%.
For `Cc1cc(Oc2nsnc(Cl)c2=O)cc(C)c1Cl` [Compound 59, 3-chloro-5-[(4-chloro-3,5-dimethyl)phenoxy]-4H--1,2,6-thiadiazin-4-one], the “Spore Germination Rating” value in assay [1] (1.0 ppm) is on record as 0 (0-10). Also, the “Spore Germination Rating” value in assay [1] (2.5 ppm) is reported as 0 (0-10). Further, the “Spore Germination Rating” value in assay [1] (10 ppm) is reported as 0 (0-10). In addition, in assay [1] (40 ppm), the “Spore Germination Rating” value is 0 (0-10). For the same compound, in assay [2], the inhibition at 5 ppm is 28%, the inhibition at 10 ppm worked out at 42%, the inhibition at 40 ppm amounted to 61% and the inhibition at 20 ppm worked out at 47%.
With `Cc1cc(Oc2nsnc(Cl)c2=O)cc(C)c1Br` [Compound 60, 3-[(4-bromo-3,5-dimethyl)-phenoxy]-5-chloro-4H--1,2,6-thiadiazin-4-one], the “Spore Germination Rating” value in assay [1] (1.0 ppm), in assay [1] (2.5 ppm), in assay [1] (10 ppm) and in assay [1] (40 ppm) was 0 (0-10) throughout. Further, the inhibition at 5 ppm in assay [2] came out at 33%. Further, the inhibition at 10 ppm in assay [2] came out at 36%. For the same compound, the inhibition at 40 ppm in assay [2] stood at 47%. The inhibition at 20 ppm in assay [2] turned out to be 44%.
On to `COc1cc(Oc2nsnc(Cl)c2=O)cc(OC)c1C(C)=O` [Compound 61, 3-[(4-acetyl-3,5-dimethoxy)-phenoxy]-5-chloro-4H--1,2,6-thiadiazin-4-one], for which the “Spore Germination Rating” value in assay [1] (1.0 ppm) is recorded as 4 (80-100). Also, in assay [1] (2.5 ppm), the “Spore Germination Rating” value is on record as 4 (80-100). For the same compound, the “Spore Germination Rating” value in assay [1] (10 ppm) is 2 (40-60). Moreover, in assay [1] (40 ppm), the “Spore Germination Rating” value is listed as 1 (10-40). In addition, in assay [2], the inhibition at 5 ppm was determined as 6%, the inhibition at 10 ppm was 23%, the inhibition at 40 ppm amounted to 52% and the inhibition at 20 ppm stood at 32%.

By inhibition is commonly meant the share of the control response that was lost under treatment.
